Test system: M17_3TAU(P301L) cells
Assay: TAU-induced cytotoxicity (LDH) in the neuroblastoma tauopathy model
Type: cell-based
Conditions: Homo sapiens, 168 h, inhibition of TAU-induced toxicity, 7 days retinoic acid differentiation, LDH readout
How it was run: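 Stably transfected BE-M17 cells expressing human TAU-P301L, seeded in serum-free detection medium, then differentiated with 2.5 μM RA (added in equal volume) for 7 days at 37° C/5% CO2 to induce TAU aggregation. Cytotoxicity = supernatant LDH increase over total LDH; EC50 from dose-dependent inhibition curves.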

SMILES	EC50
Cc1nc(CN2CC3(C2)CN(C(=O)CC2CCC(F)(F)CC2)C3)c(Cl)s1 [Cpd B117]	3.81 nM
CCn1ccc(CN2CC3(C2)CN(C(=O)CC2CCC(F)(F)CC2)C3)n1 [Cpd B118]	27.8 nM
Cn1cc(CN2CC3(C2)CN(C(=O)CC2CCC(F)(F)CC2)C3)cn1 [Cpd B119]	46 nM
Cn1cc(Cl)c(CN2CC3(C2)CN(C(=O)CC2CCC(F)(F)CC2)C3)n1 [Cpd B120]	4.27 nM
Cc1c(Cl)c(CN2CC3(C2)CN(C(=O)CC2CCC(F)(F)CC2)C3)nn1C [Cpd B121]	12.5 nM
Cc1nn(C)c(CN2CC3(C2)CN(C(=O)CC2CCC(F)(F)CC2)C3)c1Cl [Cpd B122]	3720 nM
Cc1[nH]cnc1CN1CC2(C1)CN(C(=O)CC1CCC(F)(F)CC1)C2 [Cpd B124]	54.4 nM
Cc1nc(CN2CC3(C2)CN(C(=O)CC2CCC(F)(F)CC2)C3)c[nH]1 [Cpd B125]	705 nM
Cn1cnc(CN2CC3(C2)CN(C(=O)CC2CCC(F)(F)CC2)C3)c1 [Cpd B126]	192 nM
Cc1nc(CN2CC3(C2)CN(C(=O)CC2CCC(F)(F)CC2)C3)co1 [Cpd B127]	67.6 nM
O=C(OCC1CCOCC1)N1CC2(CN(Cc3ccc(F)cc3)C2)C1 [Cpd B128, (tetrahydro-2H-pyran-4-yl)methyl 6-(4-fluorobenzyl)-2,6-diazaspiro[3.3]heptane-2-carboxylate]	126 nM
O=C(OCC12CC(F)(C1)C2)N1CC2(CN(Cc3ccc(F)cc3)C2)C1 [Cpd B129]	97 nM
O=C(OCc1ccc(Cl)cc1)N1CC2(CN(Cc3ccc(F)cc3)C2)C1 [Cpd B130]	13.3 nM
O=C(OCC1CCCC1)N1CC2(CN(Cc3ccc(F)cc3)C2)C1 [Cpd B131]	4.38 nM
O=C(OCC1CCC(F)(F)CC1)N1CC2(CN(Cc3ccc(F)cc3)C2)C1 [Cpd B132]	3.16 nM
O=C(OC1CCC(F)(F)CC1)N1CC2(CN(Cc3ccc(F)cc3)C2)C1 [Cpd B133]	2.9 nM
COc1cccc(CN2CC3(C2)CN(C(=O)OC2CCC(F)(F)CC2)C3)c1 [Cpd B135]	< 0.19 nM
Cc1nc(CN2CC3(C2)CN(C(=O)OCC24CC(F)(C2)C4)C3)cs1 [Cpd B136]	671 nM
Cc1cccnc1CN1CC2(C1)CN(C(=O)OCc1ccc(Cl)cc1)C2 [Cpd B137]	49.3 nM
Cc1cccnc1CN1CC2(C1)CN(C(=O)OC1CCCC1)C2 [Cpd B138]	888 nM
Cc1cccnc1CN1CC2(C1)CN(C(=O)OC1CCC(F)(F)CC1)C2 [Cpd B139]	20.6 nM

SMILES	EC50
COc1cccc(CN2CC3(C2)CN(C(=O)Oc2ccc(F)cc2)C3)c1 [Cpd B140, 4-fluorophenyl 6-(3-methoxybenzyl)-2,6-diazaspiro[3.3]heptane-2-carboxylate]	1.5 nM
Cc1cccnc1CN1CC2(C1)CN(C(=O)Oc1ccc(Cl)cc1)C2 [Cpd B141]	2.57 nM
Cn1ncc(Cl)c1CN1CC2(C1)CN(C(=O)OC1CCC(F)(F)CC1)C2 [Cpd B142, 4,4-difluorocyclohexyl 6-((4-chloro-1-methylpyrazol-5-yl)methyl)-2,6-diazaspiro[3.3]heptane-2-carboxylate]	864 nM
Cc1nc(CN2CC3(C2)CN(C(=O)OC2CCC(F)(F)CC2)C3)co1 [Cpd B143]	109 nM
Cn1ncc(CN2CC3(C2)CN(C(=O)OC2CCC(F)(F)CC2)C3)c1Cl [Cpd B144]	86.5 nM
Cn1cc(Cl)c(CN2CC3(C2)CN(C(=O)OC2CCC(F)(F)CC2)C3)n1 [Cpd B145]	2.78 nM
Cc1csc(CN2CC3(C2)CN(C(=O)OC2CCC(F)(F)CC2)C3)c1 [Cpd B146]	< 0.19 nM
O=C(OC1CCC(F)(F)CC1)N1CC2(CN(Cc3ccccc3C(F)(F)F)C2)C1 [Cpd B147]	3.25 nM
O=C(OC1CCC(F)(F)CC1)N1CC2(CN(Cc3c(F)cccc3C(F)(F)F)C2)C1 [Cpd B148]	396 nM
O=C(OC1CCC(F)(F)CC1)N1CC2(CN(Cc3ccccc3OC(F)F)C2)C1 [Cpd B149]	7.58 nM
O=C(OC1CCC(F)(F)CC1)N1CC2(CN(Cc3ccc(Cl)cc3F)C2)C1 [Cpd B150]	< 0.19 nM
O=C(OC1CCC(F)(F)CC1)N1CC2(CN(Cc3ccc(F)cc3Cl)C2)C1 [Cpd B151]	0.52 nM
O=C(OC1CCC(F)(F)CC1)N1CC2(CN(Cc3ccc(F)cc3F)C2)C1 [Cpd B152]	2.76 nM
O=C(OC1CCC(F)(F)CC1)N1CC2(CN(Cc3ccc(F)cn3)C2)C1 [Cpd B153]	37.2 nM
O=C(OC1CCC(F)(F)CC1)N1CC2(CN(Cc3ncccc3Cl)C2)C1 [Cpd B154]	7.81 nM
O=C(OC1CCC(F)(F)CC1)N1CC2(CN(Cc3ncccc3C(F)(F)F)C2)C1 [Cpd B155]	4.67 nM
Cc1nc(CN2CC3(C2)CN(C(=O)OCC2CCC(F)(F)CC2)C3)cs1 [Cpd B156]	83.3 nM
Cn1cc(CN2CC3(C2)CN(C(=O)OCC2CCC(F)(F)CC2)C3)c(Cl)n1 [Cpd B157]	9.33 nM
Cn1ncc(CN2CC3(C2)CN(C(=O)OCC2CCC(F)(F)CC2)C3)c1Cl [Cpd B158]	65.3 nM
Cn1cc(Cl)c(CN2CC3(C2)CN(C(=O)OCC2CCC(F)(F)CC2)C3)n1 [Cpd B159]	2.29 nM
O=C(OCC1CCC(F)(F)CC1)N1CC2(CN(Cc3ncccc3Cl)C2)C1 [Cpd B160]	3.68 nM

SMILES	EC50
O=C(OCC1CCC(F)(F)CC1)N1CC2(CN(Cc3ccc(F)cn3)C2)C1 [Cpd B161]	49.3 nM
O=C(OCC1CCC(F)(F)CC1)N1CC2(CN(Cc3ncccc3F)C2)C1 [Cpd B162]	51.6 nM
O=C(OCC1CCC(F)(F)CC1)N1CC2(CN(Cc3ncccc3C(F)(F)F)C2)C1 [Cpd B163]	3.67 nM
O=C(OCC1CCC(F)(F)CC1)N1CC2(CN(Cc3ccc(C(F)(F)F)cc3)C2)C1 [Cpd B164]	19.1 nM
O=C(OCC1CCC(F)(F)CC1)N1CC2(CN(Cc3ccccc3C(F)(F)F)C2)C1 [Cpd B165]	2.49 nM
O=C(OCC1CCC(F)(F)CC1)N1CC2(CN(Cc3ccc(F)cc3C(F)(F)F)C2)C1 [Cpd B166]	0.74 nM
O=C(NCC1CCC(F)(F)CC1)N1CC2(CN(Cc3ccc(F)cc3)C2)C1 [Cpd B167, N-((4,4-difluorocyclohexyl)methyl)-6-(4-fluorobenzyl)-2,6-diazaspiro[3.3]heptane-2-carboxamide]	4.17 nM
O=C(NC1CC(F)(F)C1)N1CC2(CN(Cc3ccc(F)cc3)C2)C1 [Cpd B168]	780 nM
O=C(NCC1CCOCC1)N1CC2(CN(Cc3ccc(F)cc3)C2)C1 [Cpd B169]	881 nM
Cc1cccnc1CN1CC2(C1)CN(C(=O)NC1CC(F)(F)C1)C2 [Cpd B170]	3440 nM
Cc1cccnc1CN1CC2(C1)CN(C(=O)NC1CCC(F)(F)CC1)C2 [Cpd B171]	77.8 nM
Cc1nc(CN2CC3(C2)CN(C(=O)N(C)C2CCC(F)(F)CC2)C3)cs1 [Cpd B172]	102 nM
COc1cccc(CN2CC3(C2)CN(C(=O)NCc2cccc(C(F)(F)F)c2)C3)c1 [Cpd B173]	30.3 nM
Cc1nc(CN2CC3(C2)CN(C(=O)Nc2cccc(C(F)(F)F)c2)C3)cs1 [Cpd B176]	73.4 nM
Cc1cccnc1CN1CC2(C1)CN(C(=O)NCC1CCCCC1)C2 [Cpd B177]	5.39 nM
Cc1cccnc1CN1CC2(C1)CN(C(=O)NC1CCCCC1)C2 [Cpd B178]	128 nM
Cc1cccnc1CN1CC2(C1)CN(C(=O)Nc1ccc(Cl)cc1)C2 [Cpd B179]	16.1 nM
COc1ccc(CNC(=O)N2CC3(CN(Cc4ncccc4C)C3)C2)cc1 [Cpd B180]	< 0.19 nM
COc1cccc(CN2CC3(C2)CN(C(=O)NCc2ccc(F)cc2)C3)c1 [Cpd B181]	4.98 nM
COc1cccc(CN2CC3(C2)CN(C(=O)NC2CCCC2)C3)c1 [Cpd B183]	< 0.19 nM
COc1cccc(CN2CC3(C2)CN(C(=O)NCC2CCCCC2)C3)c1 [Cpd B184]	5.12 nM

SMILES	EC50
COc1cccc(CN2CC3(C2)CN(C(=O)Nc2ccc(Cl)cc2)C3)c1 [Cpd B185]	17.8 nM
COc1cccc(CN2CC3(C2)CN(C(=O)Nc2ccc(OC(F)F)cc2)C3)c1 [Cpd B186]	34 nM
O=C(Nc1ccc(Cl)cc1)N1CC2(CN(Cc3ccc(F)cc3)C2)C1 [Cpd B187]	9.15 nM
O=C(NCc1ccc(F)cc1)N1CC2(CN(Cc3ccc(F)cc3)C2)C1 [Cpd B188]	53 nM
O=C(Nc1cccc(C(F)(F)F)c1)N1CC2(CN(Cc3ccc(F)cc3)C2)C1 [Cpd B189]	10.6 nM
O=C(NC12CC(F)(C1)C2)N1CC2(CN(Cc3ccc(F)cc3)C2)C1 [Cpd B190, 6-(4-fluorobenzyl)-N-(3-fluorobicyclo[1.1.1]pentan-1-yl)-2,6-diazaspiro[3.3]heptane-2-carboxamide]	491 nM
Cc1ccc(CN2CC3(C2)CN(C(=O)NCc2ccc(F)cc2)C3)o1 [Cpd B191, N-(4-fluorobenzyl)-6-((2-methyl-furan-5-yl)methyl)-2,6-diazaspiro[3.3]heptane-2-carboxamide]	144 nM
Cc1csc(CN2CC3(C2)CN(C(=O)NCc2ccc(F)cc2)C3)c1 [Cpd B192]	141 nM
Cc1nc(CN2CC3(C2)CN(C(=O)NCC2CCC(F)(F)CC2)C3)cs1 [Cpd B194]	264 nM
O=C(NCC1CCC(F)(F)CC1)N1CC2(CN(Cc3ncccc3Cl)C2)C1 [Cpd B196]	12.5 nM
O=C(NCC1CCC(F)(F)CC1)N1CC2(CN(Cc3ncccc3C(F)(F)F)C2)C1 [Cpd B197]	12.8 nM
Cc1cccnc1CN1CC2(C1)CN(C(=O)NCC1CCC(F)(F)CC1)C2 [Cpd B198]	16.5 nM
O=C(NCC1CCC(F)(F)CC1)N1CC2(CN(Cc3ncccc3F)C2)C1 [Cpd B199]	53.9 nM
O=C(NCC1CCC(F)(F)CC1)N1CC2(CN(Cc3ccc(C(F)(F)F)cc3)C2)C1 [Cpd B200]	29.3 nM
O=C(NCC1CCC(F)(F)CC1)N1CC2(CN(Cc3ccc(F)cc3C(F)(F)F)C2)C1 [Cpd B201]	3.55 nM
Cn1cc(Cl)c(CN2CC3(C2)CN(C(=O)NCC2CCC(F)(F)CC2)C3)n1 [Cpd B202]	14.1 nM
Cc1c(Cl)c(CN2CC3(C2)CN(C(=O)NCC2CCC(F)(F)CC2)C3)nn1C [Cpd B203]	15.5 nM
Cn1cc(CN2CC3(C2)CN(C(=O)NCC2CCC(F)(F)CC2)C3)c(Cl)n1 [Cpd B204]	54.9 nM

From patent publication US20250388592A1 (REMYND N.V., priority 2022, published 2025)
